Experimental data published in patent US8609723B2 (Beijing Dingguochangsheng Biotech., Co., Ltd., priority 2008, dated 2013).

Columns and labels:
male ICR mice = experiment: Forced swimming test of mice; format: in vivo; settings: 18.4 mg/kg single administration, vs control group
Protocol: The mice were forced to swim on Days 3, 7 and 14 after administration, except that such experiment was not performed for the curcumin group on Day 14.
Twenty four hours before the formal test, the mice were placed into a round glass container (height: 25 cm, diameter: 10 cm) filled with water (depth: 10 cm) with a temperature of 24±1° C., and forced to conduct swim training for 15 min. Twenty four hours later, the mice were placed into the round glass container filled with water (depth: 10 cm) again and forced to swim for 6 min. The accumulative immobile time within the last 4 min was observed and recorded for each mouse. The immobile time is intended to mean the period within which the mouse stops to struggle, floats in the water and keeps immobile, or only makes a few slight movements that are necessary to keep its head floating on the surface of water.

[1] = tested on: chronically stressed rats; experiment: Forced swimming test of rats (chronic stress model); format: in vivo; settings: vs model control group
Source text: (§1) The rats in the normal control group were raised normally under a condition without any stimulation except for weighing body weight, measuring body temperature, and subjected to sugar test. All of other groups were subjected to stimulations of same type and same strength. During the experiment, different types of stimulations were applied in an unpredictable manner, and the same type of stimulation was enhanced each time.
(§2) The chronic stress course was 20 days in total, once per day, from 9:00 AM to 2:00 PM. The stress protocol was shown as follows: horizontally shaking at a high speed for 45 min; nipping tails (1 cm from the tail root): 1 min; depriving of water for 24 h; forbidding moving for 1.5 h; fasting for 24 h; stimulating with ice water (water temperature: 10° C.) for 5 min; electric shocking (1 mA, time course: is, 1 shock/min) the bottoms of feet for 30 min; changing cages and raising separately for 24 h; forbidding moving for 2 h; nipping tails (1 cm from the root of tail) for 1 min; depriving of water for 24 h; horizontally shaking at a high speed for 1.5 h; fasting for 24 h; nipping tails (1 cm from the tail root): 1 min; electric shocking (1 mA, time course: 1 s, 1 shock/min) the bottoms of feet for 40 min; stimulating with ice water for 5 min; changing cages and raising separately for 24 h; horizontally shaking at a high speed for 60 min; electric shocking (1 mA, time course: 1 s, 1 shock/min) the bottoms of feet for 50 min; depriving of water for 24 h; forbidding moving for 2.5 h; and 24 h social isolation.
Please see FIG. 7. 24 hours before the formal test, rats were placed into a round glass container (height: 40 cm, diameter: 18 cm) filled with water (depth: 23 cm) with a temperature of 24±1° C., and forced to conduct swim training for 15 min. […] The accumulative immobile time within the last 4 min was observed and recorded for each rat. The immobile time is intended to mean the period within which the rat stops to struggle, floats in the water and keeps immobile, or only makes a few slight movements that are necessary to keep its head floating on the surface of water.

serum corticosterone = experiment: Determination of the content of serum corticosterone (chronic stress model); format: in vivo; settings: stressed rats, day after 21-day stress
Source text: as §1, §2
In this experiment, the content of serum corticosterone was measured by a competitive method, with its mechanism shown as follow: antigens in samples and enzyme-labeled antigens compete to bind antibodies in a solid phase. The more antigens exist in samples, the less enzyme-labeled antigens bind to the solid phase, thereby resulting in a fainter coloration.
On the next day after the end of the 21-day stress period, rats were sacrificed by decollation, and 5˜10 ml whole blood was collected. A portion of the collected whole blood was kept at room temperature for 20 min, followed by centrifugation at 1000 rpm for 10 min. Serum was then separated and stored at −80° C. The serum corticosterone detection kit was used for such detection.

HCT116 cells = experiment: Antitumor experiment of tumor HCT116-bearing mice; format: in vivo; settings: 7-day dosage by single administration, 7 days
Source text: During the experiment, the mice were inoculated with HCT116 cells (×10^7) in armpits. […] Seven days later, the mice were sacrificed by decollation. The tumors were removed, and the mice and the tumors were weighed separately.

S-180 sarcoma cells = experiment: Survival experiment of tumor-bearing mice; format: in vivo; settings: S-180-bearing mice, 7-day dosage by single administration; 95% confidence interval 12.8~20.2 days
Protocol: During the experiment, the mice were inoculated with S-180 sarcoma cells (×10^5) in armpits, and the next day the administration begins. The survival rate was recorded for each group.

Bladder cancer cell = experiment: Inhibitory effect on tumor cells, MTT method; format: cell-based; settings: 25 μM, 72 h
Protocol: (§3) The tumor cells with a stable passage feature, including Hela tumor cells, renal cancer cells, breast cancer cells, gastric cancer cells, rectal cancer cells, pulmonary cancer cells, hepatic cancer cells HepG2, prostate cancer cells, esophageal cancer cells, sarcoma cells, glioma cells, melanoma cells, lymphoma cells, and bladder cancer cells, were counted under a microscope (×10^4), and cultured in a 96-well plate under CO2 saturated water vapor for 24 h.

Breast cancer cell BT474 = experiment: Inhibitory effect on tumor cells, MTT method; format: cell-based; settings: Breast cancer cell BT474, 25 μM, 72 h
Protocol: as §3

Esophageal cancer cell = experiment: Inhibitory effect on tumor cells, MTT method; format: cell-based; settings: 25 μM, 72 h
Protocol: as §3

[2] = tested on: Gastric cancer cell MGC80-3; experiment: Inhibitory effect on tumor cells, MTT method; format: cell-based; settings: Gastric cancer cell MGC80-3, 25 μM, 72 h
Protocol: as §3

Glioma cell = experiment: Inhibitory effect on tumor cells, MTT method; format: cell-based; settings: 25 μM, 72 h
Protocol: as §3

Hela cell = experiment: Inhibitory effect on tumor cells, MTT method; format: cell-based; settings: 25 μM, 72 h
Protocol: as §3

[3] = tested on: Hepatic cancer cell HepG2; experiment: Inhibitory effect on tumor cells, MTT method; format: cell-based; settings: Hepatic cancer cell HepG2, 25 μM, 72 h
Protocol: as §3

Lymphoma cell = experiment: Inhibitory effect on tumor cells, MTT method; format: cell-based; settings: 25 μM, 72 h
Protocol: as §3

Melanoma cell = experiment: Inhibitory effect on tumor cells, MTT method; format: cell-based; settings: 25 μM, 72 h
Protocol: as §3

Prostate cancer cell = experiment: Inhibitory effect on tumor cells, MTT method; format: cell-based; settings: 25 μM, 72 h
Protocol: as §3

[4] = tested on: Pulmonary cancer cell A549; experiment: Inhibitory effect on tumor cells, MTT method; format: cell-based; settings: Pulmonary cancer cell A549, 25 μM, 72 h
Protocol: as §3

[5] = tested on: Rectal cancer cell HCT116; experiment: Inhibitory effect on tumor cells, MTT method; format: cell-based; settings: Rectal cancer cell HCT116, 25 μM, 72 h
Protocol: as §3

Renal cancer cell 7860 = experiment: Inhibitory effect on tumor cells, MTT method; format: cell-based; settings: Renal cancer cell 7860, 25 μM, 72 h
Protocol: as §3

Sarcoma cell = experiment: Inhibitory effect on tumor cells, MTT method; format: cell-based; settings: 25 μM, 72 h
Protocol: as §3

curcumin decanoate [long acting curcumin]
reduced the accumulative immobile time (forced swimming, mice) (male ICR mice; 3 days after administration): 62.1%
reduced the accumulative immobile time (forced swimming, mice) (male ICR mice; 7 days after administration): 74.7%
reduced the accumulative immobile time (forced swimming, mice) (male ICR mice; 14 days after administration): 37.8%
reduced the accumulative immobile time of the forced swimming test ([1]; 4.6 mg/kg once every 7 days): 37.6%
reduced the accumulative immobile time of the forced swimming test ([1]; 9.2 mg/kg once every 7 days): 49.4%
reduced the accumulative immobile time of the forced swimming test ([1]; 18.4 mg/kg once every 7 days): 58.9%
serum corticosterone (serum corticosterone; 4.6 mg/kg once every 7 days): 239.5 ± 33.7 nmol/L
serum corticosterone (serum corticosterone; 9.2 mg/kg once every 7 days): 222.9 ± 30.6 nmol/L
serum corticosterone (serum corticosterone; 18.4 mg/kg once every 7 days): 199.6 ± 28.0 nmol/L
inhibitory rate of tumors (HCT116 cells; high dosage group): 49.3%
inhibitory rate of tumors (HCT116 cells; low dosage group): 29.6%
inhibitory rate of tumors (HCT116 cells; medium dosage group): 58.4%
medium survival time (S-180 sarcoma cells): 17.5 days
Inhibitory rate (%) (Bladder cancer cell): 55.2 ± 1.0%
Inhibitory rate (%) (Breast cancer cell BT474): 52.7 ± 1.6%
Inhibitory rate (%) (Esophageal cancer cell): 35.5 ± 1.1%
Inhibitory rate (%) [2]: 42.6 ± 1.7%
Inhibitory rate (%) (Glioma cell): 58.8 ± 1.5%
Inhibitory rate (%) (Hela cell): 37.3 ± 2.4%
Inhibitory rate (%) [3]: 43.7 ± 1.4%
Inhibitory rate (%) (Lymphoma cell): 55.8 ± 1.7%
Inhibitory rate (%) (Melanoma cell): 49.9 ± 2.0. %
Inhibitory rate (%) (Prostate cancer cell): 39.7 ± 1.3%
Inhibitory rate (%) [4]: 35.9 ± 1.2%
Inhibitory rate (%) [5]: 58.9 ± 2.1%
Inhibitory rate (%) (Renal cancer cell 7860): 60.6%
Inhibitory rate (%) (Sarcoma cell): 45.5 ± 1.6%
